# Measured values taken from patent EP0768085A1, “ANTIBACTERIAL AGENT” (DAIICHI PHARMACEUTICAL CO., LTD., priority 1994, dated 1996).
# How the values were obtained:
# Assay type in all cases: cell-based
# [1] = test system: Staphylococcus aureus TI-1; assay: Antibacterial activity (IC), broth microplate as in Example 4 (Example 5, Table 40); details: TI1, 18 h
# Procedure: (§1) A suitable amount of a sample was dissolved in dimethylsulfoxide (DMSO), and the resultant solution was diluted with the same amount of sterilized distilled water to prepare a bulk sample of 1,000 µg/ml. Mueller-Hinton broth (product of DIFCO) was dispensed into each well of 96-well microplate. Thereafter, the bulk specimen was added to the first well of a row, and successively diluted (10-fold each time) with sterilized distilled water. Separately, a bacterial cell suspension for the test (Staphylococcus aureus 209-P) which had been cultured in the above-mentioned broth overnight at 37°C was inoculated to each well so that the final inoculation amount of 10^6 CFU/ml was attained. The final concentrations of the samples were 100, 10, and 1 µg/ml.
# (§2) The antibacterial action was evaluated by the inhibitory concentration (hereinafter abbreviated as IC) at which propagation of the bacteria cultured at 37°C for 18 hours was inhibited. Inhibition was determined by the turbidity of the medium. The expressions "IC≤100", "≤10", and "≤1" indicate that MIC-equivalent values obtained at the succesive […] dilution of the sample are 100-10 µg/ml, 10-1 µg/ml, and not more than 1 µg/ml, respectively. […] (In the subsequent Examples, the same rule applies correspondingly.) Table 39
# In a manner similar to that described in Example 4, antibacterial activity of the invention compound was determined. The bacterium used for the test was Staphylococcus aureus TI-1.
# [2] = test system: Staphylococcus aureus 209-P; assay: Antibacterial activity (IC), Mueller-Hinton broth, 96-well microplate (Example 4, Table 39); details: 37°C, 18 hours
# Procedure: as §1, §2
# [3] = test system: Pasteurella multocida (Kobe-6); assay: Antibacterial activity (IC), broth microplate as in Example 4 (Example 6, Table 41); details: 18 h, origin pig
# Procedure: as §1, §2
# In a manner similar to that described in Example 4, antibacterial activity of the invention compound was determined. The bacterium used for the test was Pasteurella Kobe-6 (origin: pig; Pasteurella multocida).
# [4] = test system: Bordetella bronchiseptica (SM2-4); assay: Antibacterial activity (IC), broth microplate as in Example 4 (Example 7, Table 42); details: 18 h
# Procedure: as §1, §2
# In a manner similar to that described in Example 4, antibacterial activity of the invention compound was determined. The bacterium used for the test was Bordetella bronchiseptica (SM2-4).
# [5] = test system: methicillin-resistant Staphylococcus aureus (MRSA) isolated from humans; assay: Antibacterial activity (IC), Mueller-Hinton agar containing the sample (Example 8, Table 43); details: Staphylococcus aureus, MRSA, 18 h
# Procedure: as §2
# (§3) A suitable amount of a sample was dissolved in dimethylsulfoxide (DMSO), after which the resulting solution was diluted with the same amount of sterilized distilled water to prepare a bulk sample of 1,000 µg/ml. Separately, a bacterial liquid for the test (methicillin-resistant Staphylococcus aureus (MRSA) isolated from humans) which had been cultured in Mueller-Hinton broth (product of DIFCO) was prepared and inoculated to a Mueller-Hinton agar (product of DIFCO) containing the sample so that the final inoculation amount of 10^6 CFU/ml was achieved. The final concentrations of the samples were 100, 10, and 1 µg/ml.
# (§4) After culturing at 37°C for 18 hours, the antibacterial activity was evaluated in terms of IC in a manner similar to that described in Example 4.
# [6] = test system: methicillin-resistant Staphylococcus aureus (MRSA) from humans; assay: Antibacterial activity (IC), agar as in Example 8 (Example 19, Table 52); details: 18 h
# Procedure: as §2, §3, §4
# In a manner similar to that described in Example 8, antibacterial activity of a variety of ketonitrile derivatives shown in Table 52 was measured. The bacterium used for the test was methicillin-resistant Staphylococcus aureus (MRSA) from humans.
# Pasteurella from fish = assay: Antibacterial activity (IC), agar as in Example 8, media with 1.5% NaCl, 25°C (Example 20, Tables 53-55)
# Method in brief: (§5)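 Growth inhibition was scored by turbidity after culture at 25°C, with IC bands set from 2-fold-dilution MIC-equivalents. Samples were tested at final 100, 10 and 1 µg/ml in Mueller-Hinton agar with 1.5% NaCl, seeded with 10^6 CFU/ml of the fish isolates.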
# Enterococcus from fish = assay: as above
# Method in brief: as §5
# [7] = test system: Pasteurella multocida (Kobe-6); assay: Antibacterial activity (IC), agar as in Example 8 (Example 17, Table 50); details: 18 h, origin pig
# Method in brief: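 Agar dilution on Mueller-Hinton agar with compound at 100, 10 and 1 µg/ml, inoculated at 10^6 CFU/ml with pig-origin strain Kobe-6. After 18 h at 37 °C, IC scored from turbidity and reported as a band (≤100, ≤10, ≤1 µg/ml).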
# [8] = test system: Streptococcus aureus (TI-1); assay: Antibacterial activity (IC), agar as in Example 8 (Example 16, Table 49); details: 18 h
# Method in brief: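 Compound at final 100, 10 or 1 µg/ml in Mueller-Hinton agar, inoculated with […] aureus (TI-1) at 10^6 CFU/ml and cultured 37°C for 18 h. Inhibition read from medium turbidity; IC given as 100-10, 10-1 or ≤1 µg/ml ranges from 2-fold dilution.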
# [9] = test system: Staphylococcus aureus (209-P); assay: Antibacterial activity (IC), agar as in Example 8 (Example 15, Table 48); details: 18 h
# Method in brief: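 Samples in DMSO, diluted with sterile water, incorporated into Mueller-Hinton agar at 1, 10 and 100 µg/ml final. Bacteria seeded at 10^6 CFU/ml and grown 18 h at 37°C. Inhibition read as turbidity; values reported as IC ranges rather than exact MICs.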
structure (smiles),measurement,setting,value
CC(Oc1ccc(Oc2ccc(C(F)(F)F)cn2)cc1)C(=O)C(C#N)c1ccc(Cl)cc1Cl (stereo not shown) [Compound No. 1],MIC,[1],1 to 10 µg/mL
same,MIC,[2],1 to 10 µg/mL
same,MIC,[3],10 to 100 µg/mL
"CC(Oc1ccc(Oc2ncc(C(F)(F)F)cc2Cl)cc1)C(=O)C(C#N)c1ccc(Cl)cc1Cl (stereo not shown) [Compound No. 2, 4-[4-(3-chloro-5-trifluoromethyl-2-pyridyloxy)phenoxy]-2-(2,4-dichlorophenyl)-3-oxopentanonitrile]",MIC,[1],1 to 10 µg/mL
same,MIC,[4],10 to 100 µg/mL
same,MIC,[2],10 to 100 µg/mL
same,MIC,[3],10 to 100 µg/mL
CC(Oc1ccc(Oc2ncc(C(F)(F)F)cc2Cl)cc1)C(=O)C(C#N)c1cccc(Cl)c1 (stereo not shown) [Compound No. 10],MIC,[1],1 to 10 µg/mL
same,MIC,[2],1 to 10 µg/mL
same,MIC,[3],10 to 100 µg/mL
CCC(Oc1ccc(Oc2ncc(C(F)(F)F)cc2Cl)cc1)C(=O)C(C#N)c1ccc(Cl)cc1Cl (stereo not shown) [Compound No. 15],MIC,[1],1 to 10 µg/mL
same,MIC,[2],1 to 10 µg/mL
same,MIC,[3],10 to 100 µg/mL
N#CC(C(=O)COc1ccc(Oc2ncc(C(F)(F)F)cc2Cl)cc1)c1ccc(Cl)cc1Cl (stereo not shown) [compound 9],MIC,[4],10 to 100 µg/mL
CC(Oc1ccc(Oc2ncc(C(F)(F)F)cc2Cl)cc1)C(=O)C(C#N)c1cccc2ccccc12 (stereo not shown) [compound 14],MIC,[1],10 to 100 µg/mL
same,MIC,[4],10 to 100 µg/mL
same,MIC,[2],10 to 100 µg/mL
Cc1cccc(C(C#N)C(=O)C(C)Oc2ccc(Oc3ncc(C(F)(F)F)cc3Cl)cc2)c1 (stereo not shown) [compound 16],MIC,[1],1 to 10 µg/mL
same,MIC,[4],10 to 100 µg/mL
same,MIC,[2],10 to 100 µg/mL
same,MIC,[3],10 to 100 µg/mL
COc1cccc(C(C#N)C(=O)C(C)Oc2ccc(Oc3ncc(C(F)(F)F)cc3Cl)cc2)c1 (stereo not shown) [compound 17],MIC,[1],10 to 100 µg/mL
same,MIC,[2],10 to 100 µg/mL
same,MIC,[3],10 to 100 µg/mL
CC(Oc1ccc(Oc2ncc(Cl)cc2Cl)cc1)C(=O)C(C#N)c1nc(Cl)cc(Cl)n1 (stereo not shown) [compound 20],MIC,[1],1 to 10 µg/mL
same,MIC,[2],10 to 100 µg/mL
same,MIC,[3],10 to 100 µg/mL
CC(Oc1ccc(Oc2ccc(C(F)(F)F)cc2Cl)cc1)C(=O)C(C#N)c1nc(Cl)cc(Cl)n1 (stereo not shown) [compound 22],MIC,[1],1 to 10 µg/mL
same,MIC,[2],1 to 10 µg/mL
same,MIC,[3],10 to 100 µg/mL
CC(Oc1ccc(Oc2ncc(C(F)(F)F)cc2Cl)cc1)C(=O)C(C#N)c1ccc(F)c(F)c1 (stereo not shown) [compound 27],MIC,[1],1 to 10 µg/mL
same,MIC,[2],1 to 10 µg/mL
same,MIC,[3],10 to 100 µg/mL
Cc1cc(OC(C)C(=O)C(C#N)c2ccc(Cl)c(Cl)c2)ccc1Oc1ccc(C(F)(F)F)cc1Cl (stereo not shown) [compound 44],MIC,[1],≤ 1 µg/mL
same,MIC,[4],10 to 100 µg/mL
same,MIC,"[5]; MRSA strain 891179, 37°C",≤ 1 µg/mL
same,MIC,"[5]; MRSA strain 891185, 37°C",≤ 1 µg/mL
same,MIC,"[5]; MRSA strain 891187, 37°C",≤ 1 µg/mL
same,MIC,"[5]; MRSA strain 891192, 37°C",≤ 1 µg/mL
same,MIC,"[5]; MRSA strain 900048, 37°C",≤ 1 µg/mL
same,MIC,"[5]; MRSA strain 900056, 37°C",≤ 1 µg/mL
same,MIC,[2],≤ 1 µg/mL
same,MIC,[3],1 to 10 µg/mL
Cc1cc(OC(C)C(=O)C(C#N)c2cccc(Br)c2)ccc1Oc1ccc(C(F)(F)F)cc1Cl (stereo not shown) [compound 45],MIC,[1],≤ 1 µg/mL
same,MIC,[4],10 to 100 µg/mL
same,MIC,"[5]; MRSA strain 891179, 37°C",1 to 10 µg/mL
same,MIC,"[5]; MRSA strain 891185, 37°C",1 to 10 µg/mL
same,MIC,"[5]; MRSA strain 891187, 37°C",1 to 10 µg/mL
same,MIC,"[5]; MRSA strain 891192, 37°C",1 to 10 µg/mL
same,MIC,"[5]; MRSA strain 900048, 37°C",1 to 10 µg/mL
same,MIC,"[5]; MRSA strain 900056, 37°C",1 to 10 µg/mL
same,MIC,[2],1 to 10 µg/mL
same,MIC,[3],1 to 10 µg/mL
Cc1cc(Oc2ccc(C(F)(F)F)cc2Cl)ccc1OC(C)C(=O)C(C#N)c1ccc(Cl)c(Cl)c1 (stereo not shown) [compound 46],MIC,[1],≤ 1 µg/mL
same,MIC,[4],10 to 100 µg/mL
same,MIC,"[5]; MRSA strain 891179, 37°C",1 to 10 µg/mL
same,MIC,"[5]; MRSA strain 891185, 37°C",1 to 10 µg/mL
same,MIC,"[5]; MRSA strain 891187, 37°C",≤ 1 µg/mL
same,MIC,"[5]; MRSA strain 891192, 37°C",1 to 10 µg/mL
same,MIC,"[5]; MRSA strain 900048, 37°C",≤ 1 µg/mL
same,MIC,"[5]; MRSA strain 900056, 37°C",≤ 1 µg/mL
same,MIC,[2],1 to 10 µg/mL
same,MIC,[3],10 to 100 µg/mL
Cc1cc(Oc2ccc(C(F)(F)F)cc2Cl)ccc1OC(C)C(=O)C(C#N)c1cccc(Br)c1 (stereo not shown) [compound 47],MIC,[1],≤ 1 µg/mL
same,MIC,[4],10 to 100 µg/mL
same,MIC,"[5]; MRSA strain 891179, 37°C",1 to 10 µg/mL
same,MIC,"[5]; MRSA strain 891185, 37°C",1 to 10 µg/mL
same,MIC,"[5]; MRSA strain 891187, 37°C",1 to 10 µg/mL
same,MIC,"[5]; MRSA strain 891192, 37°C",1 to 10 µg/mL
same,MIC,"[5]; MRSA strain 900048, 37°C",1 to 10 µg/mL
same,MIC,"[5]; MRSA strain 900056, 37°C",1 to 10 µg/mL
same,MIC,[2],1 to 10 µg/mL
same,MIC,[3],10 to 100 µg/mL
CC(Oc1cc(Oc2ccc(C(F)(F)F)cc2Cl)cc(Oc2ccc(C(F)(F)F)cc2Cl)c1)C(=O)C(C#N)c1cccc(Br)c1 (stereo not shown) [compound 211],MIC,[6]; MRSA strain 891179,1 to 10 µg/mL
same,MIC,[6]; MRSA strain 891185,1 to 10 µg/mL
same,MIC,[6]; MRSA strain 891187,1 to 10 µg/mL
same,MIC,[6]; MRSA strain 891192,1 to 10 µg/mL
same,MIC,[6]; MRSA strain 900048,1 to 10 µg/mL
same,MIC,[6]; MRSA strain 900056,1 to 10 µg/mL
same,MIC,Pasteurella from fish; Pasteurella piscicida KP94-02,10 to 100 µg/mL
same,IC,Pasteurella from fish; Pasteurella piscicida KP94-04,≤100 (MIC-equivalent values obtained at the succesive 2-fold dilution of the sample are 100-10 µg/ml)
same,IC,Pasteurella from fish; Pasteurella piscicida KP94-05,≤100 (MIC-equivalent values obtained at the succesive 2-fold dilution of the sample are 100-10 µg/ml)
same,IC,Pasteurella from fish; Pasteurella piscicida KP94-06,≤100 (MIC-equivalent values obtained at the succesive 2-fold dilution of the sample are 100-10 µg/ml)
same,IC,Enterococcus from fish; Enterococcus Seriolicida HI,≤10 (10-1 µg/ml)
same,IC,Enterococcus from fish; Enterococcus Seriolicida KG86050,≤10 (10-1 µg/ml)
same,IC,Enterococcus from fish; Enterococcus Seriolicida MS89060,≤10 (10-1 µg/ml)
same,IC,Enterococcus from fish; Enterococcus Seriolicida MS89064,≤10 (10-1 µg/ml)
same,IC,Enterococcus from fish; Enterococcus Seriolicida MS89066,≤10 (10-1 µg/ml)
same,IC,Enterococcus from fish; Enterococcus Seriolicida MS89068,≤10 (10-1 µg/ml)
same,IC,Enterococcus from fish; Enterococcus Seriolicida SE94-001,≤10 (10-1 µg/ml)
same,MIC,Enterococcus from fish; Enterococcus Seriolicida SE94-002,1 to 10 µg/mL
same,IC,Enterococcus from fish; Enterococcus Seriolicida SE94-003,≤10 (10-1 µg/ml)
same,IC,Enterococcus from fish; Enterococcus Seriolicida SE94-004,≤10 (10-1 µg/ml)
same,IC,Enterococcus from fish; Enterococcus Seriolicida SE94-005,≤10 (10-1 µg/ml)
same,MIC,[7],1 to 10 µg/mL
same,MIC,[8],1 to 10 µg/mL
same,MIC,[9],1 to 10 µg/mL
